What was measured:
Conditions in all cases: 72 h
[1] = system: SHI-1; experiment: cell viability (% survival relative to DMSO control, bortezomib = 0%); higher = less cytotoxic
Outline: (§1)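 Percent survival is reported as the mean of duplicate wells. Cells from 10 AML and 5 CML lines were plated in 384-well plates containing compounds at 1, 10, 100, 1000 or 10000 nM and kept for 72 h at 37 °C in 5% CO2. Readout used CellTiter-Glo luminescence, scaled so that vehicle equals 100% and a 10 µM positive control equals 0%.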

[2] = system: K-562; experiment: as above
Outline: as §1

[3] = system: BV-173; experiment: as above
Outline: as §1

[4] = system: KU-812; experiment: as above
Outline: as §1

[5] = system: Mono-Mac-6; experiment: as above
Outline: as §1

[6] = system: NOMO-1; experiment: as above
Outline: as §1

[7] = system: THP-1; experiment: as above
Outline: as §1

[8] = system: HEL; experiment: as above
Outline: as §1

[9] = system: LAMA-84; experiment: as above
Outline: as §1

[10] = system: MV4-11; experiment: as above
Outline: as §1

[11] = system: HL-60; experiment: as above
Outline: as §1

[12] = system: ML-2; experiment: as above
Outline: as §1

[13] = system: SHI-1
Outline: (§2)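 In 384-well plates holding acoustically pre-printed compounds at five tenfold doses from 1 to 10,000 nM, in duplicate, fifteen myeloid leukaemia cell lines were grown in RPMI 1640 for 72 h at 37 °C with 5% CO2. Luminescent ATP viability was scaled between vehicle and a positive control at 10 µM. The IC50 was then taken from log-logistic dose–response fits with four parameters.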

[14] = system: KCL-22
Outline: as §2

[15] = system: K-562
Outline: as §2

[16] = system: BV-173
Outline: as §2

[17] = system: KU-812
Outline: as §2

[18] = system: Mono-Mac-6
Outline: as §2

[19] = system: NOMO-1
Outline: as §2

[20] = system: THP-1
Outline: as §2

[21] = system: HEL
Outline: as §2

[22] = system: LAMA-84
Outline: as §2

[23] = system: MV4-11
Outline: as §2

[24] = system: MOLM-13
Outline: as §2

[25] = system: KG-1
Outline: as §2

[26] = system: HL-60
Outline: as §2

[27] = system: ML-2
Outline: as §2

[28] = system: HL-60; experiment: cell viability (% survival relative to DMSO control); higher = less cytotoxic
Outline: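 A rescreen of the full library used HL-60 cells in RPMI 1640 with 10% FBS on 384-well plates, run in duplicate at five tenfold concentrations (1–10,000 nM). Each screen included DMSO or 100 nM of one of three metabolic inhibitors and ran 72 h at 37 °C, 5% CO2. CellTiter-Glo viability was scaled between DMSO and 10 μM proteasome-inhibitor wells. Any area under the curve comes from four-parameter log-logistic fits with drc and PharmacoGx.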

N/C(=N\CCCC(N)C(=O)O)N[N+](=O)[O-] [L-NNA]
cell viability [%]
Conditions | 1 nM | 10 nM | 100 nM | 1000 nM | 10000 nM
[1] | 98.8 | 95.6 | 109 | 96.1 | 96.7
[2] | 104 | 94.9 | 117 | 92.1 | 102
[3] | 96.5 | 103 | 105 | 88.9 | 96.1
[4] | 88.3 | 92.6 | 102 | 87.4 | 91.8
[5] | 89.4 | 95.8 | 92.1 | 84.2 | 91
[6] | 96.4 | 99.8 | 99.4 | 91.5 | 92.2
[7] | 98.1 | 105 | 96.9 | 93 | 91.1
[8] | 103 | 98.5 | 105 | 91.6 | 95.6
[9] | 101 | 105 | 100 | 90.9 | 101
[10] | 96.4 | 103 | 106 | 103 | 107
[11] | 96.1 | 75.4 | 114 | 92.4 | 126
[12] | 90.7 | 102 | 102 | 93.7 | 94.5

Conditions | IC50 (cell viability) [µM]
[13] | > 10
[14] | > 10
[15] | > 10
[16] | > 10
[17] | > 10
[18] | > 10
[19] | > 10
[20] | > 10
[21] | > 10
[22] | > 10
[23] | > 10
[24] | > 10
[25] | > 10
[26] | > 10
[27] | > 10

cell viability [%], [28]
Conditions | 0.001 µM | 0.01 µM | 0.1 µM | 1 µM | 10 µM
co-treatment: AZD3965 100 nM | 104 | 105 | 106 | 98.7 | 101.2
co-treatment: DMSO vehicle | 102.6 | 99.86 | 105 | 99.1 | 102
co-treatment: GSK2194069 100 nM | 102 | 99.1 | 90.4 | 99.9 | 101
co-treatment: pictilisib 100 nM | 97.6 | 95.8 | 102 | 96.12 | 100

CC[C@H](C)C(=O)O[C@H]1C[C@@H](C)C=C2C=C[C@H](C)[C@H](CC[C@@H]3C[C@@H](O)CC(=O)O3)[C@H]21 [Lovastatin]
cell viability [%]
Conditions | 1 nM | 10 nM | 100 nM | 1000 nM | 10000 nM
[1] | 97.5 | 97.6 | 104 | 93.8 | 92.5
[2] | 108 | 98.9 | 101 | 99.3 | 88.4
[3] | 109 | 94.6 | 95.3 | 98.7 | 79.1
[4] | 102 | 96.4 | 94 | 87.2 | 84
[5] | 97.4 | 101 | 95.7 | 96.8 | 92.2
[6] | 101 | 91.9 | 97.2 | 93.6 | 90.7
[7] | 98.1 | 88.8 | 100 | 97.3 | 98.6
[8] | 101 | 87.8 | 114 | 92.6 | 86.3
[9] | 88.8 | 103 | 104 | 92.3 | 90.9
[10] | 97.6 | 97.3 | 106 | 93.5 | 93.2
[11] | 96.8 | 113 | 101 | 101 | 102
[12] | 108 | 105 | 111 | 104 | 102

Conditions | IC50 (cell viability) [µM]
[13] | > 10
[14] | > 10
[15] | > 10
[16] | > 10
[17] | > 10
[18] | > 10
[19] | > 10
[20] | > 10
[21] | > 10
[22] | > 10
[23] | > 10
[24] | > 10
[25] | > 10
[26] | > 10
[27] | > 10

cell viability [%], [28]
Conditions | 0.001 µM | 0.01 µM | 0.1 µM | 1 µM | 10 µM
co-treatment: AZD3965 100 nM | 92.4 | 104.3 | 101 | 98.2 | 94.1
co-treatment: DMSO vehicle | 96.8 | 102 | 101 | 96.5 | 95.5
co-treatment: GSK2194069 100 nM | 104 | 107 | 104 | 102 | 98.48
co-treatment: pictilisib 100 nM | 98.2 | 105 | 98.1 | 94.1 | 75.54

O=C(O)Cn1nnc(-c2cc(N3CCC(Oc4cc(F)ccc4Br)CC3)no2)n1 [MK-8245]
cell viability [%]
Conditions | 1 nM | 10 nM | 100 nM | 1000 nM | 10000 nM
[1] | 99 | 119 | 103 | 97.8 | 90.8
[2] | 97.7 | 122 | 90.5 | 88.2 | 41.2
[3] | 88.1 | 105 | 91.2 | 88.6 | 87.3
[4] | 99 | 107 | 93.4 | 88.2 | 94.7
[5] | 91.1 | 90.8 | 94.2 | 94.6 | 88
[6] | 95.8 | 103 | 96.9 | 96.9 | 90
[7] | 95.3 | 96.1 | 102 | 99 | 89.2
[8] | 108 | 115 | 75.6 | 92.7 | 91.2
[9] | 99.6 | 109 | 95.1 | 95.5 | 91.6
[10] | 96.8 | 91.6 | 92.4 | 116 | 94.2
[11] | 105 | 93.2 | 108 | 50.7 | 94.3
[12] | 109 | 111 | 102 | 105 | 96.7

Conditions | IC50 (cell viability) [µM]
[13] | > 10
[14] | > 10
[15] | 6.81
[16] | > 10
[17] | > 10
[18] | > 10
[19] | > 10
[20] | > 10
[21] | > 10
[22] | > 10
[23] | > 10
[24] | 0.643
[25] | > 10
[26] | > 10
[27] | > 10

cell viability [%], [28]
Conditions | 0.001 µM | 0.01 µM | 0.1 µM | 1 µM | 10 µM
co-treatment: AZD3965 100 nM | 94.6 | 102 | 96.7 | 94.6 | 108
co-treatment: DMSO vehicle | 99.9 | 99.3 | 97.87 | 94.57 | 100
co-treatment: GSK2194069 100 nM | 96.6 | 100 | 101 | 90.2 | 97.4
co-treatment: pictilisib 100 nM | 95.7 | 96.7 | 104 | 90.7 | 103

From the supplement of paper PMC8671470
